Counter-ions that a name gives are not always drawn. Like-named read-outs stand apart in the source and are kept apart here. Marks after values point to notes of the source that are not given here. Values belong to the compound of their own block, whether it stands above or below them.
What was measured:
[1] = system: Bacillus cereus ATCC 10702 NCTC 8035; experiment: Antimicrobial activity, serial dilution (MIC/MBC), Bc; assay type: cell-based
Procedure: (§1) The antimicrobial activity of the test compounds was determined by the serial dilution technique in Muller Hinton Broth 2 and in Sabouradu broth for fungi. The cultures used for testing included Gram-positive bacteria: Staphylococcus aureus ATCC 6538P FDA 209P, Bacillus cereus ATCC 10702 NCTC 8035, Enterococcus faecalis ATCC 29212; Gram-negative bacteria: Escherichia coli ATCC 25922, Pseudomonas aeruginosa ATCC 9027, and fungi: Trichophyton mentagrophytes var. gypseum 1773, and Candida albicans ATCC 10231; methicillin-resistant strains of S. aureus (MRSA) was obtained from hospital patients with chronic tonsillitis in the Republican Clinical Hospital (Kazan, Russia). The bacterial load was 3.0 × 10^5 cfu/ml. The fungi load was 2.0 × 10^3 cfu/ml. The results were recorded every 24 h for 5-7 days. Cultures were incubated at 37 °C. The experiment was repeated three times. […] The minimum inhibitory concentration (MIC) was defined as the minimum concentration of a compound that inhibits the growth of the corresponding test microorganism. The growth of bacteria, as well as the absence of the growth due to the bacteriostatic action of compounds, were recorded.
(§2) Synthesized compounds were further evaluated for antimicrobial activity against test microorganisms: Staphylococcus aureus ATCC 209p (Sa), Bacillus cereus ATCC 8035 (Bc), Escherichia coli CDC F-50 (Ec), Enterococcus faecalis (Ef), Pseudomonas aeruginosa ATCC 9027, Aspergillus niger BKMF-1119, Trichophyton mentagrophytes var. gypseum 1773, and Candida albicans 855-653 including methicillin-resistant strains of S. aureus (MRSA 1 and MRSA 2). The minimum inhibitory (MIC) and minimum bactericidal (MBC) concentrations of ammonium salts were determined against these pathogens (Table 1). Due to the lack of activity of compounds 3a-g against Gram-negative bacterial strains and some fungi, the corresponding data are not shown.

[2] = system: Enterococcus faecalis ATCC 29212; experiment: Antimicrobial activity, serial dilution (MIC/MBC), Ef; assay type: cell-based; settings: ATCC29212
Procedure: as §1, §2

[3] = system: platelets (collagen-induced aggregation); experiment: Platelet aggregation (Born method), collagen-induced; assay type: cell-based; settings: Homo sapiens, collagen 5 mg/mL, final concentration 2×10^–3 mol/L, median (25-75 percentiles), read-out: Platelets aggregation, % of control, Collagen
Procedure: (§3) The in vitro experiments were performed using the blood of healthy male donors aged 18-24 years (total 54 donors). The study was approved by the Ethics Committee of Federal State Budgetary Educational Institution of Higher Education at the Bashkir State Medical University of the Ministry of Health of Russian Federation (No.2 dated 17.10.2012). Informed consent was obtained from all participants before blood sampling. The blood was collected from the cubital vein using the system of vacuum blood collection BD Vacutainer® (Becton, Dickinson and Company, USA). A 3.8 % sodium citrate solution in a 9:1 ratio was used as a venous blood stabiliser. The study of the effect on platelet aggregation was performed using the Born method using the aggregometer «AT-02» (SPC Medtech, Russia). The assessment of antiplatelet activity of the studied compounds and reference preparations was started with the final concentration of 2×10^–3 mol/L. Adenosine diphosphate (ADP; 20 μg/mL) and collagen (5 mg/mL) manufactured by Tehnologia-Standart Company, Russia, were used as inducers of aggregation. The study on the anticoagulant activity was performed by standard recognised clotting tests using the optical two-channel automatic analyser of blood coagulation Solar CGL 2110 (CJSC SOLAR, Belarus). The following parameters were studied: activated partial thromboplastin time (APTT), prothrombin time (PT) and fibrinogen concentrations according to the Clauss method. The determination of anticoagulant activity of the studied compounds and reference preparation was performed in a concentration of 5×10^–4 g/mL using the reagents manufactured by Tehnologia-Standart Company (Barnaul, Russia). The results of the study were processed using the statistical package Statistica 10.0 (StatSoft Inc, USA). The Shapiro–Wilk’s test was used to check the normality of actual data distribution. The form of distribution of the data obtained differed from the normal one; therefore, non-parametric methods were used for further analysis. The data were presented as medians and 25 and 75 percentiles. Analysis of variance was conducted using Kruskal–Wallis test. A p value of 0.05 was considered statistically significant.

[4] = system: Candida albicans ATCC 10231; experiment: Antimicrobial activity, serial dilution (MIC/MBC), Ca; assay type: cell-based; settings: ATCC10231
Procedure: as §1, §2

[5] = system: activated partial thromboplastin time (intrinsic coagulation pathway); experiment: Anticoagulant activity, clotting test APTT; design: species or system human; settings: concentration 5×10^–4 g/mL; median (25-75 percentiles)
Procedure: as §3

[6] = system: platelets (ADP-induced aggregation); experiment: Platelet aggregation (Born method), ADP-induced; assay type: cell-based; settings: Homo sapiens, ADP 20 μg/mL, final concentration 2×10^–3 mol/L, median (25-75 percentiles), read-out: Platelets aggregation, % of control, ADP
Procedure: as §3

human erythrocytes = experiment: Hemolytic activity; assay type: cell-based; settings: compared within series 3a-g and reference drug
Procedure: Hemolytic activity of test compounds was estimated by comparing the optical density of a solution containing the test compound with that of blood at 100 % hemolysis. The experiments were carried out as described earlier.
An important step in the determination of the biological activity of new chemical compounds is the assessment of their cytotoxic action in relation to mammalian cells. The ability of the investigated compound to cause the destruction of human erythrocytes illustrates its toxic effect on the internal environment of the body. The hemolysis assay is a simple screening test, the results of which can help in the study of cytotoxicity in more complex models. Such experimental models can be the cell lines obtained from various organs and tissues of a person and allowing to adequately assessing the effect of new potential drugs on cell metabolism.

[7] = system: Staphylococcus aureus ATCC 6538P FDA 209P; experiment: Antimicrobial activity, serial dilution (MIC/MBC), Sa; assay type: cell-based; settings: Staphylococcus aureus
Procedure: as §1, §2

[8] = system: methicillin-resistant strains of S. aureus (MRSA-2); experiment: Antimicrobial activity, serial dilution (MIC/MBC), MRSA-2; assay type: cell-based; settings: Staphylococcus aureus
Procedure: as §1, §2

[9] = system: methicillin-resistant strains of S. aureus (MRSA-1); experiment: Antimicrobial activity, serial dilution (MIC/MBC), MRSA-1; assay type: cell-based; settings: Staphylococcus aureus
Procedure: as §1, §2

[10] = system: Chang liver cell line (Human liver cells); settings: reference drug compared with 3a-g

Compound: COc1cccc2c1C(=O)c1c(O)c3c(c(O)c1C2=O)C[C@@](O)(C(=O)CO)C[C@@H]3O[C@H]1C[C@H](N)[C@H](O)[C@H](C)O1 [doxorubicin]
- toxicity to liver cells (in words) [10]: much more toxic

Compound: gramicidin S [reference compound]
- toxicity to red blood cells (in words) (human erythrocytes): much more toxic

More lines, main results first:

- melting point: 176 °C
Compound: CC[N+](CC)(CC)CC(=O)N/N=C1\C(=O)N(Cc2cc(C(C)(C)C)c(O)c(C(C)(C)C)c2)c2ccc([N+](=O)[O-])cc21 (as salt: bromide) [Compound 3f, 2-(2-(1-(3,5-Di-tert-butyl-4-hydroxybenzyl)-5-nitro-2-oxoindolin-3-ylidene)hydrazinyl)-N,N,N-triethyl-2-oxoethanammonium bromide]

- melting point: 177 °C
Compound: CC[N+](CC)(CC)CC(=O)N/N=C1\C(=O)N(Cc2cc(C(C)(C)C)c(O)c(C(C)(C)C)c2)c2c(Br)cc(Cl)cc21 (as salt: bromide) [Compound 3g, 2-(2-(1-(3,5-Di-tert-butyl-4-hydroxybenzyl)-5-chloro-7-bromo-2-oxoindolin-3-ylidene)hydrazinyl)-N,N,N-triethyl-2-oxoethanammonium bromide]

- MIC [1]: 25.4 ± 1.9 µM
- MIC ([1]; Bacillus cereus, read-out: MIC): ~25 µM
- MIC [2]: > 500 µM
- MIC [4]: > 500 µM
- MIC [7]: 3.2 ± 0.2 µM
- MIC [8]: 25.4 ± 2.3 µM
- MIC [9]: 50.8 ± 4.1 µM
Compound: CC[N+](CC)(CC)CC(=O)N/N=C1\C(=O)N(Cc2cc(C(C)(C)C)c(O)c(C(C)(C)C)c2)c2c(C)cccc21 [Compound 3b, 2-(2-(1-(3,5-Di-tert-butyl-4-hydroxybenzyl)-7-methyl-2-oxoindolin-3-ylidene)hydrazinyl)-N,N,N-triethyl-2-oxoethanammonium bromide]
- MBC ([1]; Bacillus cereus): 203 µM
- MBC [2]: > 500 µM
- inhibition at 2000 µM [3]: 10.3%
- MBC [4]: > 500 µM
- APTT, % of control [5]: +7.3 (6.5-9.6) ^*, ^† % of control
- inhibition at 2000 µM [6]: 9.7%
- toxicity to red blood cells (in words) (human erythrocytes): least toxic
- MBC ([7]; read-out: MBC (converted)): 25.4 µM
- MBC [8]: 50.8 µM
- MBC [9]: 203 µM

Source: article PMC8957246, “Synthesis and diverse biological activity profile of triethylammonium isatin-3-hydrazones” (ADMET & DMPK, 2022)
